Reference: patent EP1082127B1 (WARNER-LAMBERT COMPANY LLC, priority 1998, dated 1999)
pIC50, pKi: −log10 of the molar value.

How the values were obtained:
ICE [1] = biological target: T1, ICE (Homo sapiens, UniProt P29466); assay: ICE inhibition, Ki determination (fluorogenic substrate Ac-Tyr-Val-Ala-Asp-AMC); type: biochemical; settings: 15 µM Ac-Tyr-Val-Ala-Asp-AMC, 0.5 nM enzyme, 30°C, reversible competitive model
T1 sequence (P29466 120-297 limits assumed): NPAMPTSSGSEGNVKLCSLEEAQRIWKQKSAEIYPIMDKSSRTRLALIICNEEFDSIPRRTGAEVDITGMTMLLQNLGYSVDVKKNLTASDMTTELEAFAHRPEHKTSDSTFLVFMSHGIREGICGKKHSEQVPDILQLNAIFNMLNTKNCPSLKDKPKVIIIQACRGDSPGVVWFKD
T1 sequence (P29466 317-404 limits assumed): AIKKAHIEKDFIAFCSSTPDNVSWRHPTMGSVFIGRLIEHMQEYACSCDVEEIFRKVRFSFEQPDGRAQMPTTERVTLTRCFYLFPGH
Description: Serial dilutions of each compound of the invention are prepared using an initial 8-fold dilution of a DMSO stock into HGE (100 mM HEPES, 20% glycerol v/v, 0.5 mM EDTA), followed by seven serial 2-fold dilutions into HGE + 12.5% DMSO. Ten microliters of diluted stocks or of vehicle (HGE + 12.5% DMSO) are placed in triplicate onto a 96-well microtiter plate. Enzyme is diluted into assay buffer (HGE, 5 mM DTT, 15 µM Ac-Tyr-Val-Ala-Asp-AMC; 0.5 nM final enzyme concentration, pre-warmed to 30°C), and this reaction mixture is added to the plate at 90 µL/well. Substrate hydrolysis is monitored for 300 seconds at 30°C using 385 and 460 nm excitation and emission filters, respectively. Triplicate curves are averaged, and slopes are evaluated by linear regression. To evaluate Ki, plots of percent inhibition vs inhibitor concentration are fit by non-linear regression to a reversible, competitive model: [formula] where the competition factor is (1 + [S]/KM) = 2.

ICE [2] = biological target: T1, ICE; assay: ICE Colorimetric Dose-Response (IC50) Assay; type: biochemical; settings: 60 minutes preincubation, 50 µM Ac-Tyr-Val-Ala-Asp-pNA, 25°C
Description: Diluted inhibitor stocks are prepared by two-fold serial dilution from a primary stock whose concentration is selected (based on screening results or on prior attempts at IC50 evaluation) to achieve approximately 95% inhibition in the most concentrated well. Aliquots of each dilution are transferred to a microtitre plate in triplicate.
ICE enzyme is diluted to approximately 24 nM in HGE buffer (100 mM Hepes pH 7.5, 0.5 mM EDTA, 20% glycerol, 0.1% Bovine Serum Albumin (BSA), and activated by adding dithiothreitol (DTT) to a final concentration of 5 mM. The activated enzyme is then aliquoted into wells containing inhibitor or vehicle, and the plate is preincubated for 60 minutes at ambient temperature. Substrate (Ac-Tyr-Val-Ala-Asp-pNA) is added to each well to a final concentration of 50 µM, and plates are placed in the microtitre plate-reader thermostated to 25°C. Beginning 5 minutes after addition of substrate, absorbance (405 nm) of wells is monitored for 1 hour, and activity is calculated as the mean rate of change in absorbance during this interval.

[3] = tested on: IL-1β production in human peripheral blood mononuclear cells (PBMCs); assay: PBMC Cellular Assay - IC50 Determinations (LPS-stimulated IL-1β production, ELISA); type: cell-based; settings: human PBMCs stimulated overnight with 10 ng/mL LPS, mature IL-1β by ELISA
Source text: Further evidence that compounds of Formula I are inhibitors of ICE is provided by their ability to inhibit IL-1β production in human peripheral blood mononuclear cells (PBMCs) as described herein. PBMCs are isolated from heparinized blood by centrifugation over a ficoll cushion, then washed three times with phosphate-buffered saline. PBMCs are suspended in a medium containing RPMI 1640 with glutamine, penicillin, streptomycin, and 2% human AB serum, then plated at 10^6 cells per well in 96-well flat bottom plates. PBMCs are stimulated overnight with 10 ng/mL of lipopolysaccharide (LPS, E. coli strain 0111:B4; Calbiochem) in the presence or absence of a compound of Formula I. Medium is harvested, and the level of mature IL-1β was determined using an ELISA kit from R&D Systems. Cells were cultured for an additional 4 hours in the presence of 3-(4,5-dimethylthiazol-2-yl)-2,5-diphenyltetrazolium bromide (MTT) to determine viability.

SMILES	pKi (ICE [1])	pIC50 (ICE [2])	pIC50 [3]
CCOC1OC(=O)CC1NC(=O)C(CC(=O)NCCc1ccccc1)C(C)C (stereo not drawn) [Example 48, N^1-(2-Ethoxy-5-oxo-tetrahydro-furan-3-yl)-2-isopropyl-N^4-[2-(phenyl)-ethyl]-succinamide]	6.00	4.22	4.87
CCOC1OC(=O)CC1NC(=O)C(CC(=O)NCCn1ccc2ccccc21)C(C)C (stereo not drawn) [Example 50, N^1-(2-Ethoxy-5-oxo-tetrahydro-furan-3-yl)-N^4-(2-indol-1-yl-ethyl)-2-isopropyl-succinamide]	7.27	6.03	5.70
CCOC1OC(=O)CC1NC(=O)C(CC(=O)NCCCc1cc(OC)c(OC)c(OC)c1)C(C)C (stereo not drawn) [Example 47, N^1-(2-Ethoxy-5-oxo-tetrahydro-furan-3-yl)-2-isopropyl-N^4-[3-(3,4,5-trimethoxy-phenyl)-propyl]-succinamide]	5.71	3.95	4.96
CCOC1OC(=O)CC1NC(=O)C(CC(=O)NCCc1c[nH]c2cc(OC)ccc12)C(C)C (stereo not drawn) [Example 40, N^1-(2-Ethoxy-5-oxo-tetrahydro-furan-3-yl)-2-isopropyl-N^4-[2-(6-methoxy-1H-indol-3-yl)-ethyl]-succinamide]	7.45	5.94	5.54
CCOC1OC(=O)CC1NC(=O)[C@@H](CC(=O)NCCCc1ccccc1)C(C)C (stereo partly drawn) [Example 51, N^1-(2-Ethoxy-5-oxo-tetrahydro-furan-3-yl)-2-isopropyl-N^4-[4-(phenyl)-propyl]-succinamide]	6.59	4.82	4.79
CCOC1OC(=O)CC1NC(=O)C(CC(=O)NCCc1c[nH]c2ccc(F)cc12)C(C)C (stereo not drawn) [Example 52, N^1-(2-Ethoxy-5-oxo-tetrahydro-furan-3-yl)-N^4-[2-(5-fluoro-1H-indol-3-yl)-ethyl]-2-isopropyl-succinamide]	7.73	6.31	6.12
CCOC1OC(=O)CC1NC(=O)C(CC(=O)NCCn1ncc2ccccc21)C(C)C (stereo not drawn) [Example 42, N^1-(2-Ethoxy-5-oxo-tetrahydro-furan-3-yl)-N^4-(2-indazol-1-yl-ethyl)-2-isopropyl-succinamide]	6.72	5.76	5.12
CC(C)C(CC(=O)N(C)CCOc1ccccc1)C(=O)NC(C=O)CC(=O)O (stereo not drawn) [Example 22, 3-(3-Methyl-2-{[methyl-(2-phenoxy-ethyl)-carbamoyl]-methyl}-butyrylamino)-4-oxo-butyric acid]	6.88	5.78	4.72
CC(C)[C@H](CC(=O)NCCOc1ccccc1)C(=O)NC(C=O)CC(=O)O (stereo partly drawn) [Example 8]	7.82	6.27	5.43
CC(C)C(CC(=O)NCCOc1ccccc1)C(=O)NC(C#N)CC(=O)O (stereo not drawn) [Example 65, 3-Cyano-3-{3-methyl-2-[(2-phenoxy-ethylcarbamoyl)-methyl]-butyrylamino}-propionic acid]	3.97	–	< 4.00
CC(C)C(CC(=O)NCCCc1ccccc1)C(=O)NC(CC(=O)O)C(=O)COc1cc2ccccc2cc1-c1ncc[nH]1 (stereo not drawn) [Example 14, 5-[3-(1H-Imidazol-2-yl)-naphthalen-2-yloxy]-3-{3-methyl-2-[(3-phenyl-propylcarbamoyl)-methyl]-butyrylamino}-4-oxo-pentanoic acid]	6.97	8.06	4.72
CCOC1OC(=O)CC1NC(=O)C(CC(=O)NCCc1c[nH]c2cc(F)ccc12)C(C)C (stereo not drawn) [Example 44, N^1-(2-Ethoxy-5-oxo-tetrahydro-furan-3-yl)-N^4-[2-(6-fluoro-1H-indol-3-yl)-ethyl]-2-isopropyl-succinamide]	7.32	5.91	5.60
CCOC1OC(=O)CC1NC(=O)C(CC(=O)NCCCCc1ccccc1)C(C)C (stereo not drawn) [Example 49, N^1-(2-Ethoxy-5-oxo-tetrahydro-furan-3-yl)-2-isopropyl-N^4-[4-(phenyl)-butyl]-succinamide]	5.67	3.91	–
CCOC1OC(=O)CC1NC(=O)C(CC(=O)NCCn1cnc2ccccc21)C(C)C (stereo not drawn) [Example 35, N^4-(2-Benzoimidazol-1-yl-ethyl)-N^1-(2-ethoxy-5-oxo-tetrahydro-furan-3-yl)-2-isopropyl-succinamide]	7.29	5.97	5.26
CCOC(=O)CC(C=O)NC(=O)C(CC(=O)NCCOc1ccccc1)C(C)C (stereo not drawn) [Example 63, 3-{3-Methyl-2-[(2-phenoxy-ethylcarbamoyl)-methyl]-butyrylamino}-4-oxo-butyric acid ethyl ester]	5.16	3.71	4.84
CCOC1OC(=O)CC1NC(=O)C(CC(=O)NCCn1nnc2ccccc21)C(C)C (stereo not drawn) [Example 41, N^4-(2-Benzotriazol-1-yl-ethyl)-N^1-(2-ethoxy-5-oxo-tetrahydro-furan-3-yl)-2-isopropyl-succinamide]	6.39	4.89	4.76
CCOC(=O)CC(C#N)NC(=O)C(CC(=O)NCCOc1ccccc1)C(C)C (stereo not drawn) [Example 64, 3-Cyano-3-{3-methyl-2-[(2-phenoxy-ethylcarbamoyl)-methyl]-butyrylamino}-propionic acid ethyl ester]	< 4.00	–	< 4.00
CCOC1OC(=O)CC1NC(=O)C(CC(=O)NCCNc1ccccc1)C(C)C (stereo not drawn) [Example 43, N^1-(2-Ethoxy-5-oxo-tetrahydro-furan-3-yl)-2-isopropyl-N^4-(2-phenylamino-ethyl)-succinamide]	7.01	5.64	5.12
COc1cc(CCCNC(=O)C[C@H](C(=O)NC(C=O)CC(=O)O)C(C)C)cc(OC)c1OC (stereo partly drawn) [Example 62, 3-(3-methyl-2-{[3-(3,4,5-trimethoxy-pheny)-propylcarbamoyl]-methyl}-butyrylamino)-4-oxo-butyric acid]	6.56	5.59	4.64
CCOC1OC(=O)CC1NC(=O)C(CC(=O)NCCOc1ccccc1)C(C)C (stereo not drawn) [Example 39, N^1-(2-Ethoxy-5-oxo-tetrahydro-furan-3-yl)-2-isopropyl-N^4-(2-phenoxyethyl)-succinamide]	6.35	4.88	5.30
